In PubChem BioAssay AID2305 (GlaxoSmithKline (GSK), 2010):

What follows are molecules tested on P. falciparum 3D7 growth, pLDH absorbance (assay: blood-stage malaria parasite growth potency – strain 3D7, dose response (AID 2305)).

| Compound | IC50 [nM] |
| --- | --- |
| N#Cc1cccc(CNC(=O)c2cccc(Nc3ccnc4ccc(F)cc34)c2)c1 | 990 |
| CCC(=O)c1ccc(-c2ccc(=O)n(CC(=O)N(CCN(CC)CC)Cc3ccc(-c4ccc(C(F)(F)F)cc4)cc3)n2)cc1 | 720 |
| O=C(NCc1ccc(Cl)c(Cl)c1)c1ccc(-c2nc3ccc(F)cc3[nH]2)cc1 | 1030 |
| Cc1cccc2[nH]c(-c3cccc(-c4cccc(NC(=O)c5cccnc5Cl)c4)c3)nc12 | 710 |
| O=c1cc(NCCCNCc2cc3c(Cl)cc(Cl)cc3[nH]2)[nH]c2ccccc12 | 860 |
| Oc1ccccc1CN(CCCN(Cc1ccccn1)Cc1ccccc1O)Cc1ccccn1 | 1060 |
| COc1cc2ccccc2c(OC)c1CNCCCCCCNCc1c(OC)cc2ccccc2c1OC | 990 |
| CCN(CC)CCCC(C)Nc1ccnc2ccc(OC)cc12 (configuration not stated) | 820 |
| O=C(NCCCCN1CCC(c2ccc3c(c2O)CCCC3)CC1)c1ccc(NC(=O)c2ccc(Cl)cc2)cc1 | 240 |
| CC(C)C[C@H](NC(=O)c1cc2ccccc2s1)C(=O)N[C@H]1CCN(Cc2ccc(OC3CCN(C)C3)c(Cl)c2)C1 (some centres not stated) | 780 |
| CS(=O)(=O)Cc1ccc(Nc2nccc(-c3c(-c4cccc(C(=O)Nc5c(F)cccc5F)c4)nn4ccccc34)n2)cc1 | 530 |
| CC(=O)Nc1ccc(C(=O)Nc2ccc(-c3cccc(-c4nc5c(C)cccc5[nH]4)c3)cc2)cn1 | 260 |
| CN1CCC(C(=O)N(Cc2ccc(-c3ccc(CNCCc4ccccc4)cn3)cc2)C2CCN(Cc3ccccc3)CC2)CC1 | 790 |
| C[C@@H](Oc1cc(-n2cnc3cc(SCCN4CCN(C)CC4)ccc32)sc1C(N)=O)c1ccccc1Cl | 510 |
| Cc1cccc2[nH]c(-c3cccc(-c4cccc(NC(=O)NCc5cccc(F)c5)c4)c3)nc12 | 450 |
| c1ccc2c(Nc3ccc(Cc4ccc(Nc5c6ccccc6nc6ccccc56)cc4)cc3)c3ccccc3nc2c1 | 160 |
| COc1ccc(NC(=O)Nc2ccc(-c3ccc(-c4nc5c(C)cccc5[nH]4)s3)cc2)cc1 | 180 |
| COc1ccc2nccc(N3CCC(NCCNS(=O)(=O)c4ccc5c(c4)NC(=O)CS5)C3)c2n1 (configuration not stated) | 900 |
| Cc1cc(O)cc2c(C3CCN(CC4CCN(C(=O)/C=C/c5ccc(Cl)c(Cl)c5)CC4)CC3)c[nH]c12 | 1090 |
| CN1Cc2cc(NC(=O)/C=C/c3ccccc3Cl)ccc2C(C)(C)C1 | 640 |
| CCN(CC)C(=NCCCCCCN=C(NC(N)=NCc1ccc(Cl)cc1)N(CC)CC)NC(N)=NCc1ccc(Cl)cc1 | 230 |
| O=C(/C=C/c1ccc(Cl)c(Cl)c1)NCCCCCN1CCC(NC(=O)Nc2ccc3c(c2)OCO3)CC1 | 710 |
| CCCNCc1ccc(-c2ccc(CN(CCOC)C(=O)[C@H]3CCCO3)cc2)nc1 | 750 |

| Compound | IC50 [nM] |
| --- | --- |
| O=C(N[C@H]1CCN(Cc2ccc(OCCN3CCNCC3)c(Br)c2)C1)c1ccc(Cl)c(Cl)c1 | 480 |
| COc1ccc(OCCCON)cc1 | 170 |
| CN(C)CCOc1ccc(N2CCN(CCCCNC(=O)c3ccc(/C=C/c4cc(Cl)cc(Cl)c4)cc3)CC2)cc1 | 1000 |
| Cc1cccc(CN2CCC(Oc3ccc(NC(=O)c4cccs4)cc3Cl)CC2)n1 | 840 |
| CC(C)c1cccc(OCC2CCN(c3ccc(C(=O)Nc4ccccc4)cn3)CC2)c1 | 700 |
| NS(=O)(=O)c1cccc(-c2ccc3nccc(-c4cccc(S(N)(=O)=O)c4)c3c2)c1 | 1270 |
| CCc1c[nH]c2c(N3CCCC3=O)cc(C(=O)N[C@@H](Cc3ccccc3)[C@H](O)CNC(C)(C)CCCC(C)C)cc12 | 510 |
| COc1ccc(-c2nc3c(NCc4ccccc4)nccc3[nH]2)c(OC)c1 | 780 |
| O=C(NC1CC1)c1cnc(N2CCN(Cc3c(F)cccc3Cl)CC2)c(Cl)c1 | 910 |
| O=C(/C=C/c1ccc(Cl)cc1Cl)NCCCCCN1CCC(c2c[nH]c3ccccc23)CC1 | 940 |
| O=C(Nc1cc(Cl)c(Cl)cc1NC(=O)c1cccc(-c2ccccc2)c1O)c1cccc(-c2ccccc2)c1O | 510 |
| Cc1cccc(NC(=O)Nc2ccc(I)c(OCCN(C)C)c2)c1C | 730 |
| Cc1cc(N(CCN2CCCCC2)CCN2CCCCC2)nc(Nc2ccc(Cl)cc2)n1 | 270 |
| CS(=O)(=O)CCNCc1cc(-c2cc3ncnc(Nc4ccc(OCc5cccc(F)c5)c(Cl)c4)c3s2)cs1 | 330 |
| CN1CCN(c2ccnc3cc4c(cc23)N(C(=O)Nc2ccc3c(c2)CCCC3=O)CC4)CC1 | 620 |
| COc1ccc(CNc2ccc3nc(N)nc(N)c3c2)cc1 | 170 |
| CCOc1cc(C)ccc1N(C1CCN(CCCCNC(=O)c2ccc(-c3ccc(C(F)(F)F)cc3)cc2)CC1)S(=O)(=O)c1ccccc1 | 1020 |
| O=C(/C=C/c1ccc(Cl)c(Cl)c1)NCCCCCN1CCN(C(=O)Nc2ccc(Cl)c(C(F)(F)F)c2)CC1 | 820 |
| CC(=O)Nc1cccc(CNCc2ccc(-c3cnc(N4CCCC(c5ccccc5)C4)nc3)cc2)c1 (configuration not stated) | 1190 |
| COC(=O)c1cc2cccc(NC[C@@H](C)NC[C@H](O)c3cccc(Cl)c3)c2[nH]1 | 630 |
| CSc1cccc(NC(=O)c2cc3ccccc3oc2=O)c1 | 830 |
| CCC(CC)(Cc1ccccc1)NC(=O)[C@H](Cc1ccc(OC)c(OC)c1)Nc1ccc(C#N)c2ccccc12 | 870 |
| CC(=O)c1cccc(NC(=O)c2ccc(Cl)c(S(=O)(=O)N3CCc4ccccc43)c2)c1 | 1640 |

| Compound | IC50 [nM] |
| --- | --- |
| CCOC(=O)C(C(=O)OCC)c1nc(C)ns1 | 470 |
| CCCn1cnc2cc(C(=O)Nc3ccc(-c4cccc(CN(C)C)c4)cc3)ccc2c1=O | 930 |
| O=C(Nc1cc(C(F)(F)F)cc(C(F)(F)F)c1)NC(CCCN1CCC2(CC1)OCc1ccccc12)c1ccc(Cl)c(Cl)c1 (configuration not stated) | 820 |
| O=C(Cc1cnc[nH]1)Nc1ccc(-c2ccc(-c3nc4ccccc4[nH]3)s2)cc1 | 1060 |
| Nc1nc(N)c2c3c(ccc2n1)CCC3 | 930 |
| O=C(/C=C/c1ccc(Cl)c(Cl)c1)NCCCCCN1CCC(NC(=O)Nc2ccc(Cl)cc2F)CC1 | 310 |
| O=C(NC(=Cc1cccc([N+](=O)[O-])c1)c1nc2ccccc2[nH]1)c1cccc(Br)c1 | 620 |
| O=C(Nc1ccc(Cl)c(Cl)c1)Nc1ccc2c(c1)CCNCC2 | 530 |
| Cc1cc(N(C)C)nc(Nc2ccc(NC(=O)c3ccccc3Cl)cc2)n1 | 1020 |
| CS(=O)(=O)c1ccc(Nc2ncc(-c3ccc(S(C)(=O)=O)cc3)c(OCC(F)(F)F)n2)cc1 | 400 |
| O=C(NCc1cc2c(cc1Cl)OCO2)c1ccc(CNC2CCN(Cc3ccccc3)CC2)cc1 | 830 |
| Brc1cnc(NC2=NCCN2)c(Br)c1 | 340 |
| CO/N=C(\C)c1ccc2c(c1)CCN(CCC1CCC(NC(=O)/C=C/c3ccc(F)cc3)CC1)CC2 (configuration not stated) | 1070 |
| Cc1nccc2c(NC(=O)N[C@@H]3CCN(c4ncc(C(F)(F)F)cc4Br)C3)cccc12 | 360 |
| Fc1ccc2nc(-c3ccc(-c4ccc(CN5CCCCC5)cc4)cc3)[nH]c2c1 | 350 |
| NC(=O)c1cc2nc(Nc3ccc(F)cc3)nc(Nc3ccc(S(N)(=O)=O)cc3)c2[nH]1 | 800 |
| OC(CNc1ccnc(Nc2ccc(Cl)cc2)n1)c1ccc(C(F)(F)F)cc1 (configuration not stated) | 770 |
| C/C=C/COc1ccc2ccccc2c1CNCCCCCCCCNCc1c(OC/C=C/C)ccc2ccccc12 | 910 |
| O=C1COC2(CN1C1CCN(Cc3ccc(O)cc3Cl)C1)c1ccccc1-c1ccccc12 (configuration not stated) | 1330 |
| CC(C)(C)Oc1ccc(C[C@@H]2NC3(C(=O)N(Cc4ccc(Cl)c(Cl)c4)c4ccccc43)C3C(=O)N(c4ccc(Br)cc4)C(=O)C32)cc1 (some centres not stated) | 1040 |
| CC(C)CCNCC(O)Cn1c2ccc(Cl)cc2c2cc(Cl)ccc21 (configuration not stated) | 450 |
